The record followed here is PubChem BioAssay (NCI).

What all share (assay): inhibition of tumour cell growth, NCI panel, 48 h
In assay [1] the test system is SK-OV-3 ovarian.
Assay [2] has as its system MCF7 breast.
Assay [3] relates to UACC-62 melanoma.
For assay [4], the system named is RXF 393 renal.
Assay [5] concerns OVCAR-8 ovarian.
For assay [6], the system named is HL-60(TB) leukemia.
For assay [7], the system named is SF-268 CNS.
For assay [8], the system named is OVCAR-5 ovarian.
The subject of assay [9] is SK-MEL-5 melanoma.
Assay [10] has as its system U251 CNS.

Several values for one entry are separate records, joined by “and”; a condition that tells them apart may be missing. Equal values may be shown once.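 Briefly, cells in 96-well plates were exposed to five compound concentrations for 48 h, and endpoints were estimated by linear interpolation. Abbreviation: GI50, concentration required for 50% inhibition of growth. At the TGI there is no net growth.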 A value given as a limit tells only on which side of the number the result lay.

With `CO[C@H](C(=O)N[C@@H](CCCCNC(=O)OCc1ccccc1)C(=O)OC(C)(C)C)[C@@H]1Cc2cc3cc(OC4CC(OC5CC(O)C(O)C(C)O5)C(O)C(C)O4)c(C)c(O)c3c(O)c2C(=O)[C@H]1OC1CC(OC2CC(OC3CC(C)(O)C(O)C(C)O3)C(O)C(C)O2)C(O)C(C)O1` (some centres not stated), the GI50 was 1020 nM in assay [1]; 281 nM in assay [2]; 369 nM in [3]; 705 nM in [4]; 697 nM in [5]; 971 nM in assay [6]. Also, the GI50 was 624 nM in assay [7], 976 nM in assay [8], 432 nM in assay [9] and 529 nM in assay [10]. For the same compound, the TGI is 2810 nM in [1]; 2030 nM in assay [2]; 1700 nM in assay [3]; 2020 nM in assay [4]; greater than 10000 nM in [5]; 5920 nM in assay [6]. For the same compound, the TGI in [7] worked out at 2030 nM; in assay [8] it was 2820 nM; in assay [9] it was 1590 nM; in assay [10] it was 1940 nM.
As for `Cc1ccc2sc3c(NCCCNCCO)nc4ccccc4c3c(=O)c2c1`, the GI50 was 1450 nM in assay [1]; 1610 nM in [2]; 1690 nM in [3]; 1500 nM in [4]; 1740 nM in assay [5]; 1860 nM in [6]. The GI50 in assay [7] was 1570 nM; in assay [8], 1620 nM; in assay [9], 1780 nM; in assay [10], 1600 nM. Further, the TGI was 3020 nM in assay [1]; 3170 nM in assay [2]; 3140 nM in assay [3]; 2880 nM in [4]; 3610 nM in assay [5]; 3580 nM in assay [6]. The TGI in assay [7] turned out to be 3200 nM; in [8], 3160 nM; in assay [9], 3250 nM; in [10], 3180 nM.
Regarding `COC(=O)[C@@H](C)C[C@H](Cc1ccccc1)NC(=O)c1csc([C@@H](C[C@H](C(C)C)N(C)C(=O)[C@@H](NC(=O)[C@H]2CCCCN2C)C(C)C)OC(C)=O)n1`, the TGI is greater than 25000 nM in [1]; greater than 25000 nM in [2]; greater than 25000 nM in [3]; greater than 25000 nM in [4]; greater than 25000 nM in assay [5]; 0.627 nM and < 2.5 nM in assay [6]. The TGI in [7] is greater than 25000 nM; in [8] it was greater than 25000 nM; in assay [9], 3.01 nM and < 2.5 nM; in assay [10], greater than 25000 nM. For the same compound, the GI50 in [4] is 2.5 nM; in assay [5], 0.519 nM and 2.5 nM; in assay [6] it was 0.187 nM and < 2.5 nM; in assay [7] it was 0.671 nM and 2.5 nM; in assay [8], 0.369 nM and 2.5 nM; in assay [9], less than 0.1 nM. In addition, the GI50 in assay [10] is 0.396 nM and 2.5 nM.
In the case of `COC(=O)Nc1nc2ccc(Oc3ccc(NC(=O)Nc4cccc(Cl)c4)cc3)cc2[nH]1`, the GI50 in assay [1] was 1030 nM; in [2], 307 nM; in [3] it was 712 nM; in assay [4] it was 445 nM; in [5] it was 2840 nM; in assay [6], 859 nM. Also, the GI50 was 2430 nM in assay [7], 4040 nM in assay [8], 492 nM in assay [9] and 1250 nM in [10]. Also, the TGI in assay [1] is 4620 nM; in assay [2] it was 4750 nM; in assay [3], 4780 nM; in assay [4], 2340 nM; in assay [5], greater than 17800 nM; in [6] it was 2920 nM. For the same compound, the TGI in assay [7] is 15300 nM; in assay [8] it was greater than 25000 nM; in [9], 3660 nM; in assay [10], 5680 nM.
As for `C[C@]12CCC(=O)C=C1CC[C@@H]1[C@@H]2CC[C@]2(C)C(=O)/C(=C/c3cccc(OCCN4CCOCC4)c3)C[C@@H]12`, the GI50 was 11700 nM in [1]; 9110 nM in [2]; 11000 nM in assay [3]; 5620 nM in [4]; 6280 nM in assay [5]; 2130 nM in [6]. Besides, the GI50 in [7] is 13600 nM; in [8] it was 13400 nM; in [9], 4170 nM; in assay [10], 8500 nM. Besides, the TGI in assay [1] is greater than 100000 nM; in assay [2], 71700 nM; in assay [3] it was 27500 nM; in [4], 20900 nM; in [5], greater than 100000 nM; in assay [6], 5820 nM. For the same compound, the TGI in assay [7] is 76600 nM; in assay [8], 34000 nM; in assay [9], 15700 nM; in assay [10], 24900 nM.
